From patent US20240228555A9, “ANTIMICROBIAL PEPTIDOMIMETICS” (Basilea Pharmaceutica International AG, Allschwil, priority 2020, published 2024)
Where a SMILES comes first, the peptide text is derived from it.

Columns and labels:
[1] = tested on: human red blood cells (hRBC); format: cell-based; conditions: red cells of human, 1 h, 0.2 g/L
How it was run: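 Percent lysis was derived from supernatant absorbance at 540 nm relative to full lysis by 2.5% Triton X-100 (PBS defines 0%). Compounds, 200 μg/mL, were exposed for 1 h at 37° C to a 20% (v/v) suspension of washed human red cells.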

[2] = tested on: Klebsiella pneumoniae SSI3010; conditions: SSI3010
How it was run: (§1)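 First, bacterial colonies are suspended in saline and adjusted to 0.5 McFarland. Next, the suspension is diluted into cation-adjusted Mueller-Hinton II broth (approx. 5×10^5 CFU/mL). Finally, it is added to two-fold serially diluted peptide, with polysorbate 80 at 0.002% final.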

[3] = tested on: Escherichia coli ATCC 25922; conditions: ATCC 25922
How it was run: as §1

[4] = tested on: Escherichia coli MCR-1 Af 45; conditions: Mueller-Hinton broth II, no visible growth after 18-20 hours at 35° C.
How it was run: as §1

SMILES | Hemolysis at 0.2 g/L [1] | Klebsiella pneumoniae SSI3010 MIC [2] | Escherichia coli ATCC 25922 MIC [3] | Escherichia coli MCR-1 Af 45 MIC [4]
CC[C@H](C)[C@@H]1NC(=O)[C@@H](NC(=O)[C@H](Cc2ccc(O)cc2)NC(=O)[C@@H](NC(=O)[C@@H](NC(=O)[C@@H]2C[C@@H](O)CN2C(=O)[C@@H](N)C(C)C)[C@@H](C)CC)[C@@H](C)O)C(C)(C)SSC[C@@H](C(=O)N[C@@H](CO)C(=O)N[C@@H](CCCN)C(=O)N[C@@H](Cc2ccc(O)cc2)C(=O)O)NC(=O)[C@H](CCCCN)NC(=O)[C@@H](CCN)NC(=O)[C@H]([C@@H](C)O)NC(=O)[C@H](CCN)NC(=O)[C@H](CCCNC(=N)N)NC1=O [Example 92, Val-Hyp-Ile-Thr-Tyr-Pen-Ile-Arg-Dab-Thr-^DDab-Lys-Cys-Ser-Orn-Tyr] (HELM PEPTIDE1{V.[Hyp].I.T.Y.[Pen].I.R.[Dab].T.[NCC[C@@H](N[*:1])C(=O)[*:2]].K.C.S.[Orn].Y}$PEPTIDE1,PEPTIDE1,6:R3-13:R3$$$V2.0) | <1% | 0.5 µg/mL | 0.25 µg/mL | 0.125 µg/mL
CC[C@H](C)[C@H](NC(=O)[C@@H](NC(=O)[C@@H]1C[C@@H](N)CN1C(=O)[C@@H](N)C(C)C)[C@@H](C)CC)C(=O)N[C@@H](Cc1ccc(O)cc1)C(=O)N[C@@H]1C(=O)N[C@@H](CC(N)=O)C(=O)N[C@@H](CCCNC(=N)N)C(=O)N[C@@H](CCN)C(=O)N[C@@H]([C@@H](C)O)C(=O)N[C@H](CCN)C(=O)N[C@@H](CCCCN)C(=O)N[C@H](C(=O)N[C@@H](CO)C(=O)N[C@@H](CCCNC(=N)N)C(=O)N[C@@H](Cc2ccc(O)cc2)C(=O)O)CSSC1(C)C [Example 93, Val-Pro((4R)NH2)-Ile-Ile-Tyr-Pen-Asn-Arg-Dab-Thr-^DDab-Lys-Cys-Ser-Arg-Tyr] (HELM PEPTIDE1{V.[N[C@@H]1C[C@@H](C(=O)[*:2])N([*:1])C1].I.I.Y.[Pen].N.R.[Dab].T.[NCC[C@@H](N[*:1])C(=O)[*:2]].K.C.S.R.Y}$PEPTIDE1,PEPTIDE1,6:R3-13:R3$$$V2.0) | <1% | 0.25 µg/mL | 0.25 µg/mL | 0.0625 µg/mL
CC[C@H](C)[C@H](NC(=O)[C@@H]1C[C@@H](O)CN1C(=O)[C@@H](N)C(C)C)C(=O)N[C@H](C(=O)N[C@@H](Cc1ccc(O)cc1)C(=O)N[C@@H]1C(=O)N[C@@H](CC(N)=O)C(=O)N[C@@H](CCCNC(=N)N)C(=O)N[C@@H](CCN)C(=O)N[C@@H](CO)C(=O)N[C@H](CCN)C(=O)N[C@@H](CCCCN)C(=O)N[C@H](C(=O)N[C@@H](CCN)C(=O)N[C@@H](CCCN)C(=O)N[C@@H](Cc2ccc(O)cc2)C(=O)O)CSSC1(C)C)[C@@H](C)O [Example 94, Val-Hyp-Ile-Thr-Tyr-Pen-Asn-Arg-Dab-Ser-^DDab-Lys-Cys-Dab-Orn-Tyr] (HELM PEPTIDE1{V.[Hyp].I.T.Y.[Pen].N.R.[Dab].S.[NCC[C@@H](N[*:1])C(=O)[*:2]].K.C.[Dab].[Orn].Y}$PEPTIDE1,PEPTIDE1,6:R3-13:R3$$$V2.0) | <1% | 0.25 µg/mL | 0.0625 µg/mL | 0.0625 µg/mL
CC[C@H](C)[C@@H]1NC(=O)[C@@H](NC(=O)[C@H](Cc2ccc(O)cc2)NC(=O)[C@@H](NC(=O)[C@@H](NC(=O)[C@@H]2C[C@@H](O)CN2C(=O)[C@@H](N)C(C)(C)C)[C@@H](C)CC)[C@@H](C)O)C(C)(C)SSC[C@@H](C(=O)N[C@@H](CCN)C(=O)N[C@@H](CCCN)C(=O)N[C@@H](Cc2ccc(O)cc2)C(=O)O)NC(=O)[C@H](CCCCN)NC(=O)[C@@H](CCN)NC(=O)[C@H]([C@@H](C)O)NC(=O)[C@H](CCN)NC(=O)[C@H](CCCNC(=N)N)NC1=O [Example 95, tBuGly-Hyp-Ile-Thr-Tyr-Pen-Ile-Arg-Dab-Thr-^DDab-Lys-Cys-Dab-Orn-Tyr] (HELM PEPTIDE1{[CC(C)(C)[C@H](N)C(=O)[*:2]].[Hyp].I.T.Y.[Pen].I.R.[Dab].T.[NCC[C@@H](N[*:1])C(=O)[*:2]].K.C.[Dab].[Orn].Y}$PEPTIDE1,PEPTIDE1,6:R3-13:R3$$$V2.0) | <1% | 0.25 µg/mL | 0.125 µg/mL | 0.125 µg/mL
CC[C@H](C)[C@H](NC(=O)[C@@H](NC(=O)[C@@H]1C[C@@H](O)CN1C(=O)[C@@H](N)C(C)C)[C@@H](C)CC)C(=O)N[C@@H](Cc1ccc(O)cc1)C(=O)N[C@@H]1C(=O)N[C@@H](CC(N)=O)C(=O)N[C@@H](CCCNC(=N)N)C(=O)N[C@@H](CCN)C(=O)N[C@@H](CO)C(=O)N[C@H](CCN)C(=O)N[C@@H]([C@@H](C)CC)C(=O)N[C@H](C(=O)N[C@@H](CCN)C(=O)N[C@@H](CCCN)C(=O)N[C@@H](Cc2ccc(O)cc2)C(=O)O)CSSC1(C)C [Example 96, Val-Hyp-Ile-Ile-Tyr-Pen-Asn-Arg-Dab-Ser-^DDab-Ile-Cys-Dab-Orn-Tyr] (HELM PEPTIDE1{V.[Hyp].I.I.Y.[Pen].N.R.[Dab].S.[NCC[C@@H](N[*:1])C(=O)[*:2]].I.C.[Dab].[Orn].Y}$PEPTIDE1,PEPTIDE1,6:R3-13:R3$$$V2.0) | <1% | 0.5 µg/mL | 0.25 µg/mL | 0.25 µg/mL
CC[C@H](C)[C@H](NC(=O)[C@@H](NC(=O)[C@@H]1C[C@@H](O)CN1C(=O)[C@@H](N)C(C)C)[C@@H](C)CC)C(=O)N[C@@H](Cc1ccc(O)cc1)C(=O)N[C@@H]1C(=O)N[C@@H](CC(N)=O)C(=O)N[C@@H](CCCNC(=N)N)C(=O)N[C@@H](CCN)C(=O)N[C@@H]([C@@H](C)O)C(=O)N[C@H](CCN)C(=O)N[C@@H]([C@@H](C)CC)C(=O)N[C@H](C(=O)N[C@@H](CCN)C(=O)N[C@@H](CCCN)C(=O)N[C@@H](Cc2ccc(O)cc2)C(=O)O)CSSC1(C)C [Example 97, Val-Hyp-Ile-Ile-Tyr-Pen-Asn-Arg-Dab-Thr-^DDab-Ile-Cys-Dab-Orn-Tyr] (HELM PEPTIDE1{V.[Hyp].I.I.Y.[Pen].N.R.[Dab].T.[NCC[C@@H](N[*:1])C(=O)[*:2]].I.C.[Dab].[Orn].Y}$PEPTIDE1,PEPTIDE1,6:R3-13:R3$$$V2.0) | <1% | 0.5 µg/mL | 0.25 µg/mL | 0.25 µg/mL
CC[C@H](C)[C@H](NC(=O)[C@@H](NC(=O)[C@@H]1C[C@@H](O)CN1C(=O)[C@@H](N)C(C)C)[C@@H](C)CC)C(=O)N[C@@H](Cc1ccc(O)cc1)C(=O)N[C@@H]1C(=O)N[C@@H](CC(N)=O)C(=O)N[C@@H](CCCNC(=N)N)C(=O)N[C@@H](CCN)C(=O)N[C@@H]([C@@H](C)O)C(=O)N[C@H](CCN)C(=O)N[C@@H](CCCNC(N)=O)C(=O)N[C@H](C(=O)N[C@@H](CCN)C(=O)N[C@@H](CCCNC(=N)N)C(=O)N[C@@H](Cc2ccc(O)cc2)C(=O)O)CSSC1(C)C [Example 98, Val-Hyp-Ile-Ile-Tyr-Pen-Asn-Arg-Dab-Thr-^DDab-Cit-Cys-Dab-Arg-Tyr] (HELM PEPTIDE1{V.[Hyp].I.I.Y.[Pen].N.R.[Dab].T.[NCC[C@@H](N[*:1])C(=O)[*:2]].[Cit].C.[Dab].R.Y}$PEPTIDE1,PEPTIDE1,6:R3-13:R3$$$V2.0) | <1% | 0.5 µg/mL | 0.25 µg/mL | 0.25 µg/mL
CC[C@H](C)[C@@H]1NC(=O)[C@@H](NC(=O)[C@H](Cc2ccc(O)cc2)NC(=O)[C@@H](NC(=O)[C@@H](NC(=O)[C@@H]2C[C@@H](O)CN2C(=O)[C@@H](N)C(C)C)[C@@H](C)CC)[C@@H](C)O)C(C)(C)SSC[C@@H](C(=O)N[C@@H](CCN)C(=O)N[C@@H](CO)C(=O)N[C@@H](Cc2ccc(O)cc2)C(=O)O)NC(=O)[C@H](CCCCN)NC(=O)[C@@H](CCN)NC(=O)[C@H]([C@@H](C)O)NC(=O)[C@H](CCN)NC(=O)[C@H](CCCNC(=N)N)NC1=O [Example 99, Val-Hyp-Ile-Thr-Tyr-Pen-Ile-Arg-Dab-Thr-^DDab-Lys-Cys-Dab-Ser-Tyr] (HELM PEPTIDE1{V.[Hyp].I.T.Y.[Pen].I.R.[Dab].T.[NCC[C@@H](N[*:1])C(=O)[*:2]].K.C.[Dab].S.Y}$PEPTIDE1,PEPTIDE1,6:R3-13:R3$$$V2.0) | <1% | 0.25 µg/mL | 0.125 µg/mL | 0.125 µg/mL
CC[C@H](C)[C@H](NC(=O)[C@@H](NC(=O)[C@@H]1C[C@@H](N)CN1C(=O)[C@@H](N)C(C)C)[C@@H](C)CC)C(=O)N[C@@H](Cc1ccc(O)cc1)C(=O)N[C@@H]1C(=O)N[C@@H](CC(N)=O)C(=O)N[C@@H](CCCNC(=N)N)C(=O)N[C@@H](CCN)C(=O)N[C@@H]([C@@H](C)O)C(=O)N[C@H](CCN)C(=O)N[C@@H](CCCCN)C(=O)N[C@H](C(=O)N[C@@H](CCN)C(=O)N[C@@H](CO)C(=O)N[C@@H](Cc2ccc(O)cc2)C(=O)O)CSSC1(C)C [Example 100, Val-Pro((4R)NH2)-Ile-Ile-Tyr-Pen-Asn-Arg-Dab-Thr-^DDab-Lys-Cys-Dab-Ser-Tyr] (HELM PEPTIDE1{V.[N[C@@H]1C[C@@H](C(=O)[*:2])N([*:1])C1].I.I.Y.[Pen].N.R.[Dab].T.[NCC[C@@H](N[*:1])C(=O)[*:2]].K.C.[Dab].S.Y}$PEPTIDE1,PEPTIDE1,6:R3-13:R3$$$V2.0) | <1% | 0.25 µg/mL | 0.25 µg/mL | 0.0625 µg/mL
